Experimental data as given in ChEMBL document CHEMBL5120922, “Discovery, Optimization, and Evaluation of Potent and Selective PI3Kδ-γ Dual Inhibitors for the Treatment of B-cell Malignancies” (J Med Chem, 2022).

Columns and labels:
[1] = target: Phosphatidylinositol 4,5-bisphosphate 3-kinase catalytic subunit beta isoform (Homo sapiens, UniProt P42338); assay: Inhibition of N-terminal His6-tagged recombinant full length human PI3Kbeta expressed in baculovirus infected Sf21 insect cells at 1 uM by HTRF assay relative to control
Phosphatidylinositol 4,5-bisphosphate 3-kinase catalytic subunit beta isoform, sequence (P42338 whole entry, looked up, canonical isoform): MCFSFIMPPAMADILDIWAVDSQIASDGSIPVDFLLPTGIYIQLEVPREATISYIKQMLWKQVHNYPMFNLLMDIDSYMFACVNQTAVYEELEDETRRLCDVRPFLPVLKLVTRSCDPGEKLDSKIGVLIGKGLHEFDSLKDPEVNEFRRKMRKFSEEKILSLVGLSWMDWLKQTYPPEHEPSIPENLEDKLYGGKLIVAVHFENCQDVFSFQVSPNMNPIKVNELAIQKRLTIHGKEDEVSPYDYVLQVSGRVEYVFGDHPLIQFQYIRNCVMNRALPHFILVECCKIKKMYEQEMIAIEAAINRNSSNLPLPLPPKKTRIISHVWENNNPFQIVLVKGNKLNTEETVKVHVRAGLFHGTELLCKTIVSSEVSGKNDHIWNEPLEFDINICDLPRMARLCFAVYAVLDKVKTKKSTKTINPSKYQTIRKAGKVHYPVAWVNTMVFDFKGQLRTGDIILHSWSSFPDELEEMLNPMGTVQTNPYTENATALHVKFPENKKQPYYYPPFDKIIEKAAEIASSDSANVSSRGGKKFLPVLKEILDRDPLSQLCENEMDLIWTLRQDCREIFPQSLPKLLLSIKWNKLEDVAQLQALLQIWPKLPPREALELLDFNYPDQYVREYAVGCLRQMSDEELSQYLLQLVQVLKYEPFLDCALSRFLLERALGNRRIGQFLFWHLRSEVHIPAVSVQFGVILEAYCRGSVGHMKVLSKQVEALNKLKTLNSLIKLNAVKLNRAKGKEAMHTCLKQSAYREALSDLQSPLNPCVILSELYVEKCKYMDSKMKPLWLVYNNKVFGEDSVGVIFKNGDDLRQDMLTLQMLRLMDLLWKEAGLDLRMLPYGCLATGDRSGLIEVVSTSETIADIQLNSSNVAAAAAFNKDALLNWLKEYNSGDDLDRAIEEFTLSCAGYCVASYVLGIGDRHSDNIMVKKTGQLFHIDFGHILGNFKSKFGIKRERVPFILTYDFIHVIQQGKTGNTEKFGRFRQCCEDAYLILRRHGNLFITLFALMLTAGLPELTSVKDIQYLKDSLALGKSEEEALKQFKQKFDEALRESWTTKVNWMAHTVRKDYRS

SU-DHL-6 = assay: Antiproliferative activity against human SU-DHL-6 cells assessed as cell growth inhibition measured after 72 hrs by MTT assay; type: functional, cell-based; settings: SU-DHL-6, 72 h
SUD4 = assay: Antiproliferative activity against human SU-DHL-4 cells assessed as cell growth inhibition measured after 72 hrs by MTT assay; type: functional, cell-based; settings: SU-DHL-4, 72 h
[2] = target: T1, Phosphatidylinositol 4,5-bisphosphate 3-kinase catalytic subunit gamma isoform (Homo sapiens, UniProt P48736); assay: Inhibition of N-terminal His6-tagged recombinant full length human PI3Kgamma expressed in baculovirus infected Sf21 insect cells at 0.1 uM by HTRF assay relative to control
T1 sequence (P48736 whole entry, looked up, canonical isoform): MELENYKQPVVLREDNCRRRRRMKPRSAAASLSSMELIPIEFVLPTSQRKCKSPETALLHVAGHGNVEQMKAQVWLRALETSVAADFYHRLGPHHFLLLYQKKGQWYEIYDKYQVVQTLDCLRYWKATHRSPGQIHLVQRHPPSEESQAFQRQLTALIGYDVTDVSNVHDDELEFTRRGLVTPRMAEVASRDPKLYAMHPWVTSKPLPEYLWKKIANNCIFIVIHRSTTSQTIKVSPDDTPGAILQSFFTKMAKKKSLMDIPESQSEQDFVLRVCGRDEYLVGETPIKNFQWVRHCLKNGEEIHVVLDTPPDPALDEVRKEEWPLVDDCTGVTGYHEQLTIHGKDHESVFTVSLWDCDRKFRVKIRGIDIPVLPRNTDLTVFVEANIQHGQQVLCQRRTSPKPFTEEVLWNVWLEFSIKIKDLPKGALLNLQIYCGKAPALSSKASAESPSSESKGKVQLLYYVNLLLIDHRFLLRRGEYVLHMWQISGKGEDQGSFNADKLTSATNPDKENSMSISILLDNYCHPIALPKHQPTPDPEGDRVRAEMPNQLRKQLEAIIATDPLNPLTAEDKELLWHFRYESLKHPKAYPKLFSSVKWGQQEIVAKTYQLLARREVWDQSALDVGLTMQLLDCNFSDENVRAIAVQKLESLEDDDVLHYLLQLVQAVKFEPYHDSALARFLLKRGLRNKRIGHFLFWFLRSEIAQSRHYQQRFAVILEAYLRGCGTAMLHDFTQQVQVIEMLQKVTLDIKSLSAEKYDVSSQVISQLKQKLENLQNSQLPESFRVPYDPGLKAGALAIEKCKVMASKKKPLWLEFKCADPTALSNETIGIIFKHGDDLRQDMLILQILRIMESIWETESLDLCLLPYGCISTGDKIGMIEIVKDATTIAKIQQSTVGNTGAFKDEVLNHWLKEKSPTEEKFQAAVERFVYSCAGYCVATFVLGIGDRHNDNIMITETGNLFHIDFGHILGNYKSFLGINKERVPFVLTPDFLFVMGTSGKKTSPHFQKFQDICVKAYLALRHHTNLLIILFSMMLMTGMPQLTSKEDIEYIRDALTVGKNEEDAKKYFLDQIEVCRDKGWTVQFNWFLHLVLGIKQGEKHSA

[3] = Metabolic stability in human liver microsomes assessed as clearance at 1 uM measured upto 60 mins in presence of NADPH by measuring protein; type: ADME, Microsome; settings: 1 h
[4] = target: Phosphatidylinositol 4,5-bisphosphate 3-kinase catalytic subunit alpha isoform (Homo sapiens, UniProt P42336); assay: Inhibition of N-terminal His6-tagged recombinant full length human PI3Kalpha expressed in baculovirus infected Sf21 insect cells at 1 uM by HTRF assay relative to control
Phosphatidylinositol 4,5-bisphosphate 3-kinase catalytic subunit alpha isoform, sequence (P42336 whole entry, canonical isoform): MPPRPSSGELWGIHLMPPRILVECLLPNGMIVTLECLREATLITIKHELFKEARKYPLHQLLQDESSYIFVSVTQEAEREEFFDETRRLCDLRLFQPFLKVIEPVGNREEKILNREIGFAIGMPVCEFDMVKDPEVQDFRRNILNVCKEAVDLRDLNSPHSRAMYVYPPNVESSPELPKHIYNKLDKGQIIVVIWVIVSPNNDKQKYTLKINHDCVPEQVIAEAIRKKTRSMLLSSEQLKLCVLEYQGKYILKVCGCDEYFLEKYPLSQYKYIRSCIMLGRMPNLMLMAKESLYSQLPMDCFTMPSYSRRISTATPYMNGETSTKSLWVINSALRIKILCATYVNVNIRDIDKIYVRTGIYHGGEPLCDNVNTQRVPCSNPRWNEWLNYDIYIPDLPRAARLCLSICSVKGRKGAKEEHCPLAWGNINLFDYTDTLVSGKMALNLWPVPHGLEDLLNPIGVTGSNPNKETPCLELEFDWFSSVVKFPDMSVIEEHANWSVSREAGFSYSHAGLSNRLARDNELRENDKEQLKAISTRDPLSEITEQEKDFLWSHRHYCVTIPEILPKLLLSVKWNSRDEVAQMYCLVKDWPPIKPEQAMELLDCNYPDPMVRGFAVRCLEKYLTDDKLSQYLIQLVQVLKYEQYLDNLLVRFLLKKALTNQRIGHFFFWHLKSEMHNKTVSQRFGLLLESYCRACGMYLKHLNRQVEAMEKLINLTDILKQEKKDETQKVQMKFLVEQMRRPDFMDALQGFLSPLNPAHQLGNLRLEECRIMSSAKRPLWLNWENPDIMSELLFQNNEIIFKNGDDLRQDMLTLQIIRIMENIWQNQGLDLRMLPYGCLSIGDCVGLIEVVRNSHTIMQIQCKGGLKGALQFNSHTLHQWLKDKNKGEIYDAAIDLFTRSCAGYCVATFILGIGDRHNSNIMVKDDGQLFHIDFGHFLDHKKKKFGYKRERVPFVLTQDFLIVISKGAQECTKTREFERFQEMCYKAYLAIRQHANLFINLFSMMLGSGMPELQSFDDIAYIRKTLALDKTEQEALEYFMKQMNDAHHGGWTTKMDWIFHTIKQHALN

[5] = Metabolic stability in human liver microsomes assessed as half life at 1 uM measured upto 60 mins in presence of NADPH; type: ADME, Microsome
[6] = Metabolic stability in human liver microsomes assessed as compound remaining at 1 uM measured upto 60 mins in presence of NADPH; type: ADME, Microsome; settings: read-out: Stability
DOHH-2 = assay: Antiproliferative activity against human DOHH-2 cells assessed as cell growth inhibition measured after 72 hrs by MTT assay; type: functional, cell-based; settings: DOHH-2, 72 h
[7] = target: T2, Phosphatidylinositol 4,5-bisphosphate 3-kinase catalytic subunit delta isoform (Homo sapiens) (UniProt O00329); assay: Inhibition of N-terminal His6-tagged recombinant full length human PI3Kdelta expressed in baculovirus infected Sf21 insect cells at 0.1 uM by HTRF assay relative to control
T2 sequence (whole entry): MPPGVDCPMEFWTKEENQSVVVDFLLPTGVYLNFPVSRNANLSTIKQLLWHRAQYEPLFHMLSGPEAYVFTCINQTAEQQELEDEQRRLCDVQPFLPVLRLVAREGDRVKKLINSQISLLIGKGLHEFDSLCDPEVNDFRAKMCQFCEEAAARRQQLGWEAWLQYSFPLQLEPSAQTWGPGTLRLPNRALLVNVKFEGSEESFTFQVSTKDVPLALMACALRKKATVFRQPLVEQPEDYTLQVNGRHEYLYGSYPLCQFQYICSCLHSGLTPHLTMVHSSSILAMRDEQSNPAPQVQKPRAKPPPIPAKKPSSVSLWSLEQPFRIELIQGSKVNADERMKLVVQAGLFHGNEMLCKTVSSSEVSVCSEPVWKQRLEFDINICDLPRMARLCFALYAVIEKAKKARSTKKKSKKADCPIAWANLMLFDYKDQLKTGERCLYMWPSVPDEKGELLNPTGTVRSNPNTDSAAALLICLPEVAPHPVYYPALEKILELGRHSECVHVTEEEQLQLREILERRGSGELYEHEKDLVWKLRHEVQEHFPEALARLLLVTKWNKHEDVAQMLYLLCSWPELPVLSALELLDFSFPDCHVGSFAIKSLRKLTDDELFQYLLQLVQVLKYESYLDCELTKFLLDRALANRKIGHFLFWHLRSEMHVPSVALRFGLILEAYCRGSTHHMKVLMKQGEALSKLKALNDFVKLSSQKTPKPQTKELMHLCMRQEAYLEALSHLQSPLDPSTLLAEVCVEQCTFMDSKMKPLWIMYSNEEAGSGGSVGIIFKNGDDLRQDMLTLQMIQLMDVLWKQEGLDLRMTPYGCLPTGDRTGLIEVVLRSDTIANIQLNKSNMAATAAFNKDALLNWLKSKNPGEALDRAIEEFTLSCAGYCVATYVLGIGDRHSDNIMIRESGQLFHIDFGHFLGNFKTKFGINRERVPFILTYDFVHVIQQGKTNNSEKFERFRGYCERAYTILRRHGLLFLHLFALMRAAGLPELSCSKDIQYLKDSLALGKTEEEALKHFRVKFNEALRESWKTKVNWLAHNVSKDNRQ

[8] = target: T2, Phosphatidylinositol 4,5-bisphosphate 3-kinase catalytic subunit delta isoform (Homo sapiens); assay: Inhibition of N-terminal His6-tagged recombinant full length human PI3Kdelta expressed in baculovirus infected Sf21 insect cells at 1 uM by HTRF assay relative to control
[9] = target: T1, Phosphatidylinositol 4,5-bisphosphate 3-kinase catalytic subunit gamma isoform; assay: Inhibition of N-terminal His6-tagged recombinant full length human PI3Kgamma expressed in baculovirus infected Sf21 insect cells at 1 uM by HTRF assay relative to control

Row | SMILES | inhibition [1] [%] | IC50 (SU-DHL-6) [µM] | inhibition [2] [%] | CLH [3] [mL/min/g] | inhibition [4] [%] | half-life at 1 µM [5] [min] | remaining at 1 h, 1 µM [6] [%] | inhibition [7] [%] | inhibition [8] [%] | inhibition [9] [%] | IC50 (SUD4) [µM] | IC50 (DOHH-2) [µM]
1 | C[C@H]1CC[C@@H](c2nc3cccc(Cl)c3c(=O)n2-c2ccccc2)N1c1nc(F)nc2[nH]cnc12 | -1 | 0.49 | 76 |  | 49 |  |  | 27 | 13 | 34 | 0.73 | 0.91
2 | N#Cc1c(N)nc(N)nc1N1[C@H](c2nc3cccc(Cl)c3c(=O)n2-c2cc(F)cc(F)c2)C[C@@H]2CCCC[C@@H]21 | 84 | 2.75 | 85 |  | 79 |  |  | 34 | 18 | 49 | 1.83 | 3.54
3 | C[C@H]1CC[C@@H](c2nc3cccc(Cl)c3c(=O)n2-c2ccccc2)N1c1ccnc(N)n1 | 106 | 1.84 | 99 |  | 78 |  |  | 88 | 11 | 100 | 1.2 | 3.97
4 | Cc1cc(N2[C@@H](C)CC[C@H]2c2nc3cccc(Cl)c3c(=O)n2-c2ccccc2)nc(N)n1 | 105 | 1.53 | 99 |  | 96 |  |  | 93 | 75 | 96 | 1.12 | 1.96
5 | C[C@H]1CC[C@@H](c2nc3cccc(Cl)c3c(=O)n2-c2cccnc2)N1c1nc(N)nc2[nH]cnc12 | 54 | 0.41 | 39 |  | 89 |  |  | 15 | 7 | 0 | 0.51 | 0.65

More lines, main results first:

Row | inhibition [1] [%] | IC50 (SU-DHL-6) [µM] | inhibition [2] [%] | CLH [3] [mL/min/g] | inhibition [4] [%] | half-life at 1 µM [5] [min] | remaining at 1 h, 1 µM [6] [%] | inhibition [7] [%] | inhibition [8] [%] | inhibition [9] [%] | SMILES | IC50 (SUD4) [µM] | IC50 (DOHH-2) [µM]
6 | 19 | 0.28 | 25 | 37.4 | -7 | 37.1 | 32.6 |  |  |  | C[C@H]1CC[C@@H](c2nc3cccc(-c4cccnc4)c3c(=O)n2-c2ccccc2)N1c1nc(N)nc(N)c1C#N | 0.12 | 1.01
7 | 68 | 0.84 | 51 |  | 90 |  |  | 12 | 7 | 2 | C[C@H]1CC[C@@H](c2nc3cccc(Cl)c3c(=O)n2-c2cc(F)cc(F)c2)N1c1nc(N)nc2[nH]cnc12 | 0.77 | 2.21
8 | 43 | 0.58 | 14 |  | 66 |  |  | 4 | 1 | -8 | C[C@H]1CC[C@@H](c2nc3cccc(Cl)c3c(=O)n2-c2cc(F)cc(F)c2)N1c1nc(N)nc(N)c1C#N | 0.36 | 1.17
9 | 84 | 1.8 | 88 |  | 82 |  |  | 74 | 37 | 41 | C[C@H]1CC[C@@H](c2nc3cccc(Cl)c3c(=O)n2-c2ccccc2)N1c1nc(N)nc2[nH]ccc12 | 4.93 | 3.59
10 | 53 | 0.42 | 45 |  | 91 |  |  | 81 | 5 | -2 | C[C@H]1CC[C@@H](c2nc3cccc(Cl)c3c(=O)n2N2CCOCC2)N1c1nc(N)nc2[nH]cnc12 | 0.6 | 1.44
11 | 98 | 1.48 | 93 |  | 84 |  |  | 82 | 23 | 75 | N#Cc1c(N)nc(N)nc1N1[C@H](c2nc3cccc(F)c3c(=O)n2-c2cc(F)cc(F)c2)C[C@@H]2CCCC[C@@H]21 | 1.45 | 2.47
